From patent publication US9474790B2, “Stable, protracted GLP-1/glucagon receptor co-agonists for medical use” (Novo Nordisk A/S, priority 2013, dated 2016)
Numbered stars: 1 amine (or outer) side, 2 acyl side, 3 side chain; on linkers, the order of the positions; unused ones are H or OH. Square brackets hold non-standard residues; d marks the D form. Side chains are listed from the residue outwards. Peptide text beside a SMILES is read from it. * marks the point of attachment. C18 diacid = O=C(O)CCCCCCCCCCCCCCCCC(=O)*; γGlu = O=C(O)[C@H](CCC(=O)[*:2])N[*:1]; AEEA = NCCOCCOCC(=O)O; Aib = CC(C)(N)C(=O)O

Columns and labels:
[1] = Thioflavin T (ThT) fibrillation assay for physical stability; format: physicochemical; conditions: 250 μM in 10 mM HEPES buffer, pH 7.5, 37° C., shaking 960 rpm
Summary of the method: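 Peptide at 250 μM in 10 mM HEPES pH 7.5 with 1 μM ThT, at 37° C with 960 rpm orbital shaking. Fluorescence (ex 444/em 485 nm) read every 20 min after 10 min pre-incubation; sigmoidal fit gives lag time (t0−2τ) and kapp (1/τ). Recovery is RP-HPLC peptide in the centrifuged, 0.22 μm-filtered supernatant as % of initial.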

[2] = target: T1, human GLP-1 receptor (Homo sapiens, UniProt P43220); assay: GLP-1 receptor potency, CRE luciferase reporter gene assay in BHK cells; format: cell-based; conditions: BHK cells expressing human GLP-1 receptor, read-out: EC50 GLP-1R
T1 construct: expressed in transfected cells; host or cells: BHK cells (parent BHKTS13), clone FCW467-12A/KZ10-1, with CRE luciferase
Summary of the method: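 BHK cells stably expressing human GLP-1 receptor with CRE-luciferase reporter, 5×10EE3 cells/well in phenol red-free DMEM with 10 mM Hepes, 2% ovalbumin, 0.2% Pluronic F-68. Compounds at final 1×10EE-6 to 1×10EE-13 M, 3 h at 37° C; steadylite luminescence; EC50 by four-parameter fit, in pM.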

T1 sequence (P43220 24-463): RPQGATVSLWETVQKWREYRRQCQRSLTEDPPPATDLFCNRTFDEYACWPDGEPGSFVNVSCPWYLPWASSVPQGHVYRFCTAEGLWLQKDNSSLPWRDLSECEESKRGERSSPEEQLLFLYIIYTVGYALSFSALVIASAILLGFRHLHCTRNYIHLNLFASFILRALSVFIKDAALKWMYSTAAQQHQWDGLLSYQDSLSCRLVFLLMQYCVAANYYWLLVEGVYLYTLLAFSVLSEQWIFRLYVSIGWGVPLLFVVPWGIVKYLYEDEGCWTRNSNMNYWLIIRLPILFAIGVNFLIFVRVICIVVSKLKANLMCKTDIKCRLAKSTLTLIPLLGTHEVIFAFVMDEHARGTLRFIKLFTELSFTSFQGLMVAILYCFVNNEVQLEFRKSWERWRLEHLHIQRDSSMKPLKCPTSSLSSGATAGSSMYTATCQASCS

THT assay Lag time (Ex. 76) [1] | EC50 [2] | SMILES
45 h | 4 pM | CC(C)C[C@H](NC(=O)[C@H](Cc1ccc(O)cc1)NC(=O)[C@H](CCCCN)NC(=O)[C@H](CO)NC(=O)[C@H](CC(C)C)NC(=O)[C@H](CC(=O)O)NC(=O)[C@H](CO)NC(=O)[C@@H](NC(=O)[C@H](Cc1ccccc1)NC(=O)[C@@H](NC(=O)CNC(=O)[C@H](CCC(N)=O)NC(=O)C(C)(C)NC(=O)[C@@H](N)Cc1c[nH]cn1)[C@@H](C)O)[C@@H](C)O)C(=O)N[C@@H](CCC(=O)O)C(=O)N[C@@H](CO)C(=O)N[C@@H](CCCCN)C(=O)N[C@@H](CCCNC(=N)N)C(=O)N[C@@H](C)C(=O)N[C@@H](CCCNC(=N)N)C(=O)N[C@@H](CCC(=O)O)C(=O)N[C@@H](Cc1ccccc1)C(=O)N[C@H](C(=O)N[C@@H](CCC(N)=O)C(=O)N[C@@H](Cc1c[nH]c2ccccc12)C(=O)N[C@@H](CC(C)C)C(=O)N[C@@H](CC(C)C)C(=O)N[C@@H](CCCCNC(=O)CC[C@H](NC(=O)CC[C@H](NC(=O)[C@H](CO)NC(=O)[C@H](CCC(=O)O)NC(=O)[C@H](CO)NC(=O)CC[C@H](NC(=O)CC[C@H](NC(=O)CCCCCCCCCCCCCCCCC(=O)O)C(=O)O)C(=O)O)C(=O)O)C(=O)O)C(=O)N[C@H](C(N)=O)[C@@H](C)O)C(C)C [Example 52] (H-H[Aib]QGTFTSDLSKYLESKRAREFVQWLLK([γGlu-γGlu-Ser-Glu-Ser-γGlu-γGlu-C18 diacid])T-NH2; N-terminus assumed)
40 h | 4 pM | CC(C)C[C@H](NC(=O)[C@H](CC(C)C)NC(=O)[C@H](Cc1c[nH]c2ccccc12)NC(=O)[C@H](CCC(N)=O)NC(=O)[C@@H](NC(=O)[C@H](Cc1ccccc1)NC(=O)[C@H](CCC(=O)O)NC(=O)[C@H](CCCNC(=N)N)NC(=O)[C@H](C)NC(=O)[C@H](CCCNC(=N)N)NC(=O)[C@H](CCCNC(=N)N)NC(=O)[C@H](CO)NC(=O)[C@H](CCC(=O)O)NC(=O)[C@H](CC(C)C)NC(=O)[C@H](Cc1ccc(O)cc1)NC(=O)[C@H](CCCCN)NC(=O)[C@H](CO)NC(=O)[C@H](CC(C)C)NC(=O)[C@H](CC(=O)O)NC(=O)[C@H](CO)NC(=O)[C@@H](NC(=O)[C@H](Cc1ccccc1)NC(=O)[C@@H](NC(=O)CNC(=O)[C@H](CCC(N)=O)NC(=O)C(C)(C)NC(=O)[C@@H](N)Cc1c[nH]cn1)[C@@H](C)O)[C@@H](C)O)C(C)C)C(=O)N[C@@H](CC(N)=O)C(=O)N[C@@H](CCCCNC(=O)CC[C@H](NC(=O)CC[C@H](NC(=O)COCCOCCNC(=O)CC[C@H](NC(=O)CCCCCCCCCCCCCCCCC(=O)O)C(=O)O)C(=O)O)C(=O)O)C(N)=O [Example 40, N^ε29-[(4S)-4-carboxy-4-[[(4S)-4-carboxy-4-[[2-[2-[2-[[(4S)-4-carboxy-4-(17-carboxyheptadecanoylamino)butanoyl]amino]ethoxy]ethoxy]acetyl]amino]butanoyl]amino]butanoyl]-[Aib2,Leu10,Glu15,Arg20,Glu21,Leu27,Lys29]-Glucagon amide] (H-H[Aib]QGTFTSDLSKYLESRRAREFVQWLLNK([γGlu-γGlu-AEEA-γGlu-C18 diacid])-NH2; N-terminus assumed)
